Here are results for 10 compounds from paper PMC6749236, “Synthesis of Novel 2-(Het)arylpyrrolidine Derivatives and Evaluation of Their Anticancer and Anti-Biofilm Activity” (Molecules, 2019).

One series concerns M-Hela. In words: Cytotoxicity assay (Cytell Cell Imaging, DAPI/propidium iodide), cancer cell line. Type of series: cell-based. The conditions noted are these: Homo sapiens, M-HeLa, read-out: IC50 Cancer Cell Line M-Hela.
Another series deals with Chang liver cell line. In words: Cytotoxicity assay (Cytell Cell Imaging), normal cell line. Type of series: cell-based. Particulars: Homo sapiens, read-out: IC50 Normal Cell Line Chang Liver.
The test system of a further series is P388 murine leukemia. In words: In vivo anti-tumor activity, i.p. implanted leukemia. Further details: species or system BDF1 hybrid male mice. Particulars: for ILS / MST ± SD: P388; for Survival: day 60. The method, then: Animals. In vivo experiments were performed using the BDF1 hybrid male mice of 22–24 g weight. The experimental animals were caged in a standard vivarium in 12 h light conditions with free access to food and water. All manipulations with the animals were performed in accordance with the solutions of the Commission on Bioethics of the Institute of Problems of Chemical Physics, Russian Academy of Sciences (IPCP RAS).
Anti-tumor activity. The tumors were transplanted intraperitoneally (i.p.) in accordance with a standard procedure inoculum: 10^6 tumor cells in isotonic solution of NaCl, V = 0.2 cm^3 (leukemia P388). Original compounds were injected intraperitoneally as aqueous solution. Doses from 18 to 83 mg/kg/day and the mode of administration on days 1, 5, and 9 after transplantation were used. In each experiment, a single group of tumor-bearing animals not injected with the compounds served as the control group. Each group consisted of six mice. The animals were observed daily for survival for a minimum of 60 days. The efficacy of the therapy against leukemia (defined as increase in lifespan—ILS) was assessed as the percentage of the median survival time (MST) of the treated group (t) to that of the control group (c): ILS(%) = (MSTt/MSTc) × 100.
Statistics. The experiments were carried out in triplicate. The data are presented in the form X ± SD (mean ± standard deviation). The significance of the differences between the groups was assessed using Student’s t-test. Values of p < 0.05 were considered statistically significant. The data were processed statistically using GraphPad Prism.

Setting [1] is: 18 mg/kg/day i.p., days 1, 5, 9.
The mark [2] stands for this setting: 26 mg/kg/day i.p., days 1, 5, 9.
[3] abbreviates: 40 mg/kg/day i.p., days 1, 5, 9.
The mark [4] stands for this setting: 55 mg/kg/day i.p., days 1, 5, 9.
[5] abbreviates: 83 mg/kg/day i.p., days 1, 5, 9.

Molecules are shown by their SMILES.

In general, IC50 refers to the concentration at which inhibition is half-maximal. One may read the melting point as the temperature of the solid-liquid transition. `Cc1cc(O)c(C2CCCN2C(=O)Nc2ccc(F)cc2)c(=O)o1` (stereo not drawn) [7e, N-(4-Fluorophenyl)-2-(4-hydroxy-6-methyl-2-oxo-2H-pyran-3-yl)pyrrolidine-1-carboxamide] showed a melting point of 177 to 178 °C. Further, the half-inhibitory concentration (IC50) in the series on M-Hela was more than 100 µM. For the same compound, in the series on Chang liver cell line, the IC50 is more than 100 µM.
The compound `O=C(Nc1ccc(F)cc1)N1CCCC1c1c(O)c2ccccc2oc1=O` (stereo not drawn) [8e, N-(4-Fluorophenyl)-2-(4-hydroxy-2-oxo-2H-chromen-3-yl)pyrrolidine-1-carboxamide] displayed a melting point of 165 °C. The IC50 in the series on M-Hela is more than 100 µM. The half-maximal inhibitory concentration (IC50) in the series on Chang liver cell line is more than 100 µM.
Compound `O=C(Nc1ccc(Br)cc1)N1CCCC1c1cc2c(cc1O)OCO2` (stereo not drawn) [5d, N-(4-Bromophenyl)-2-(6-hydroxybenzo[d][1,3]dioxol-5-yl)pyrrolidine-1-carboxamide] yielded a melting point of 164 °C. Besides, in the series on M-Hela, the half-inhibitory concentration (IC50) was more than 100 µM. The half-inhibitory concentration (IC50) in the series on Chang liver cell line was more than 100 µM.
The ILS is how much longer treated animals lived than controls. A lower ILS goes with little gain in survival. `CN(C)CCNC(=O)N1CCCC1c1c(O)c2ccccc2oc1=O.O=C(O)C(F)(F)F` (stereo not drawn) [8h, 2-(2-(4-Hydroxy-2-oxo-2H-chromen-3-yl)pyrrolidine-1-carboxamido)-N,N-dimethylethan-1-aminium 2,2,2-trifluoroacetate]: the IC50 in the series with M-Hela and in the series with Chang liver cell line was more than 100 µM in each case. Moreover, the ILS in the series with P388 murine leukemia (setting [1]) is listed as 93%; with P388 murine leukemia (setting [2]), 107%; with P388 murine leukemia (setting [3]) it was 32%; with P388 murine leukemia (setting [4]), 98%; in the series with P388 murine leukemia (setting [5]), 162%. The “MST ± SD” value is 19.3 ± 8.1 days in the series with P388 murine leukemia (setting [1]); 20.7 ± 8.0 days with P388 murine leukemia (setting [2]); 13.2 ± 1.6 days with P388 murine leukemia (setting [3]); 19.8 ± 8.1 days in the series with P388 murine leukemia (setting [4]); 26.2 ± 10.7 days in the series on P388 murine leukemia (setting [5]). For the same compound, the Survival in the series with P388 murine leukemia (18 mg/kg/day) amounted to 17%; in the series with P388 murine leukemia (26 mg/kg/day), 17%; in the series with P388 murine leukemia (40 mg/kg/day), 0%; in the series with P388 murine leukemia (55 mg/kg/day), 17%; with P388 murine leukemia (83 mg/kg/day), 33%. Besides, in the series with P388 murine leukemia (P388, dose range 18–83 mg/kg/day i.p., days 1, 5, 9), the “antitumor (anti-leukemic) activity, in words” value is recorded as “pronounced anti-leukemic activity”.
Compound `CCCCCCNC(=O)N1CCCC1c1c(O)cc(C)oc1=O` (stereo not drawn) [7f, N-Hexyl-2-(4-hydroxy-6-methyl-2-oxo-2H-pyran-3-yl)pyrrolidine-1-carboxamide] displayed a melting point of 137 to 138 °C. The IC50 in the series with M-Hela is more than 100 µM. Further, the IC50 in the series on Chang liver cell line was more than 100 µM.
Turning to `O=C(NC1CCCCC1)N1CCCC1c1c(O)c2ccccc2oc1=O` (stereo not drawn) [8g, N-Cyclohexyl-2-(4-hydroxy-2-oxo-2H-chromen-3-yl)pyrrolidine-1-carboxamide], the melting point lay in the range of 166 to 167 °C. Further, the IC50 in the series with M-Hela was more than 100 µM. Further, in the series on Chang liver cell line, the IC50 was more than 100 µM.
Consider `COc1ccc(NC(=O)N2CCCC2c2c(O)cc(C)oc2=O)cc1` (stereo not drawn) [7c, 2-(4-Hydroxy-6-methyl-2-oxo-2H-pyran-3-yl)-N-(4-methoxyphenyl)pyrrolidine-1-carboxamide], for which the melting point fell in the range of 168 to 169 °C. In addition, in the series on M-Hela, the IC50 is more than 100 µM. Further, the IC50 with Chang liver cell line was more than 100 µM.
On to `CCCCCCNC(=O)N1CCCC1c1ccc(Nc2c([N+](=O)[O-])c(Cl)cc3c2no[n+]3[O-])cc1O` (stereo not drawn) [6f, 6-Chloro-4-((4-(1-(hexylcarbamoyl)pyrrolidin-2-yl)-3-hydroxyphenyl)amino)-5-nitrobenzo[c][1,2,5]oxadiazole 1-oxide], for which the melting point was 121 to 122 °C (dec.). The IC50 in the series on M-Hela turned out to be 47 ± 2.9 µM. Further, in the series on Chang liver cell line, the half-inhibitory concentration (IC50) stood at 57 ± 4.3 µM.
In turn, `O=C(Nc1ccc(F)cc1)N1CCCC1c1cc2c(cc1O)OCO2` (stereo not drawn) [5e, N-(4-Fluorophenyl)-2-(6-hydroxybenzo[d][1,3]dioxol-5-yl)pyrrolidine-1-carboxamide] returned a melting point of 184 to 185 °C. The IC50 with M-Hela was more than 100 µM. Besides, the IC50 with Chang liver cell line is more than 100 µM.
Consider `O=C(Nc1ccc(Br)cc1)N1CCCC1c1c(O)c2ccccc2oc1=O` (stereo not drawn) [8d, N-(4-Bromophenyl)-2-(4-hydroxy-2-oxo-2H-chromen-3-yl)pyrrolidine-1-carboxamide], for which the melting point was 179 °C. Besides, the IC50 in the series on M-Hela was more than 100 µM. The IC50 in the series with Chang liver cell line is more than 100 µM.
